Measurements: PubChem BioAssay AID1963860 (Molecular Pharmacology Branch, DTP, NCI, 2024)

System: CN0375-F725-PDC KRAS spheroid viability
Assay: Anticancer human tumor CN0375-F725-PDC patient-derived colon carcinoma cell line growth inhibition [KRAS2]
Settings: spheroids with HUVEC and MSC; for IC50: curve of first compound; for viability, T/C: stronger effect = lower value
Method in brief: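 Combination screen of spheroid viability in tumor-cell co-cultures with endothelial (HUVEC) and mesenchymal stem cell stroma. Each agent was tested in half-log dilutions, topping at clinical Cmax or at 10 microM without a known Cmax.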

[1] = second compound 0.1 µM, first compound 0.0316 µM
[2] = second compound 0.1 µM, first compound 0.1 µM
[3] = second compound 0.1 µM, first compound 0.316 µM
[4] = second compound 0.1 µM, first compound 1 µM
[5] = second compound 0.1 µM, first compound 3.16 µM
[6] = second compound 0.1 µM, first compound 10 µM
[7] = second compound 0.316 µM, first compound 0.0316 µM
[8] = second compound 0.316 µM, first compound 0.1 µM
[9] = second compound 0.316 µM, first compound 0.316 µM
[10] = second compound 0.316 µM, first compound 1 µM
[11] = second compound 0.316 µM, first compound 3.16 µM
[12] = second compound 0.316 µM, first compound 10 µM
[13] = second compound 1 µM, first compound 0.0316 µM
[14] = second compound 1 µM, first compound 0.1 µM
[15] = second compound 1 µM, first compound 0.316 µM
[16] = second compound 1 µM, first compound 1 µM
[17] = second compound 1 µM, first compound 3.16 µM
[18] = second compound 1 µM, first compound 10 µM
[19] = second compound 3.16 µM, first compound 0.0316 µM
[20] = second compound 3.16 µM, first compound 0.1 µM
[21] = second compound 3.16 µM, first compound 0.316 µM
[22] = second compound 3.16 µM, first compound 1 µM
[23] = second compound 3.16 µM, first compound 3.16 µM
[24] = second compound 3.16 µM, first compound 10 µM
[25] = second compound 10 µM, first compound 0.0316 µM
[26] = second compound 10 µM, first compound 0.1 µM
[27] = second compound 10 µM, first compound 0.316 µM
[28] = second compound 10 µM, first compound 1 µM
[29] = second compound 10 µM, first compound 3.16 µM
[30] = second compound 10 µM, first compound 10 µM
[31] = second compound 0.1 µM, first compound 0.01 µM
[32] = second compound 0.316 µM, first compound 0.01 µM
[33] = second compound 1 µM, first compound 0.01 µM
[34] = second compound 3.16 µM, first compound 0.01 µM
[35] = second compound 10 µM, first compound 0.01 µM
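Note: spheroids exposed to agents for 7 days.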

## CC(C)NCC(C(=O)N1CCN(c2ncnc3c2C(C)CC3O)CC1)c1ccc(Cl)cc1 (stereo not given) + CNCc1ccccc1-c1csc(C(C)Nc2nc(C)nc3cc(OC)c(OC)cc23)c1
Second compound 0.1 µM
  IC50: > 10000 nM
Second compound 0.316 µM
  IC50: > 10000 nM
Second compound 1 µM
  IC50: 370 nM
Second compound 3.16 µM
  IC50: < 31.6 nM
Second compound 10 µM
  IC50: < 31.6 nM
[1]
  viability, T/C: 107%
[2]
  viability, T/C: 103%
[3]
  viability, T/C: 93.1%
[4]
  viability, T/C: 82.6%
[5]
  viability, T/C: 89.5%
[6]
  viability, T/C: 78.7%
[7]
  viability, T/C: 99.4%
[8]
  viability, T/C: 98.2%
[9]
  viability, T/C: 88.5%
[10]
  viability, T/C: 85.2%
[11]
  viability, T/C: 80%
[12]
  viability, T/C: 61.8%
[13]
  viability, T/C: 56.6%
[14]
  viability, T/C: 57.2%
[15]
  viability, T/C: 48.4%
[16]
  viability, T/C: 45.2%
[17]
  viability, T/C: 30.1%
[18]
  viability, T/C: 16%
[19]
  viability, T/C: 0.23%
[20]
  viability, T/C: 0.3%
[21]
  viability, T/C: 0.25%
[22]
  viability, T/C: 0.28%
[23]
  viability, T/C: 0.31%
[24]
  viability, T/C: 0.32%
[25]
  viability, T/C: 0.14%
[26]
  viability, T/C: 0.14%
[27]
  viability, T/C: 0.16%
[28]
  viability, T/C: 0.14%
[29]
  viability, T/C: 0.13%
[30]
  viability, T/C: 0.2%

## CC1COCCN1c1cc(-c2ccnn2C)c2ccnc(-c3ccn[nH]3)c2n1 (stereo not given) + CNCc1ccccc1-c1csc(C(C)Nc2nc(C)nc3cc(OC)c(OC)cc23)c1
Second compound 0.1 µM
  IC50: > 3160 nM
Second compound 0.316 µM
  IC50: 3100 nM
Second compound 1 µM
  IC50: 127 nM
Second compound 3.16 µM
  IC50: < 10 nM
Second compound 10 µM
  IC50: < 10 nM
[31]
  viability, T/C: 97.8%
[1]
  viability, T/C: 88.5%
[2]
  viability, T/C: 80.7%
[3]
  viability, T/C: 76.2%
[4]
  viability, T/C: 68%
[5]
  viability, T/C: 52.1%
[32]
  viability, T/C: 92%
[7]
  viability, T/C: 89.7%
[8]
  viability, T/C: 74.1%
[9]
  viability, T/C: 70%
[10]
  viability, T/C: 59.4%
[11]
  viability, T/C: 49.5%
[33]
  viability, T/C: 63.5%
[13]
  viability, T/C: 64.3%
[14]
  viability, T/C: 44.1%
[15]
  viability, T/C: 45.1%
[16]
  viability, T/C: 39%
[17]
  viability, T/C: 23.5%
[34]
  viability, T/C: 0.32%
[19]
  viability, T/C: 0.28%
[20]
  viability, T/C: 0.36%
[21]
  viability, T/C: 0.41%
[22]
  viability, T/C: 0.44%
[23]
  viability, T/C: 0.54%
[35]
  viability, T/C: 0.45%
[25]
  viability, T/C: 0.24%
[26]
  viability, T/C: 0.19%
[27]
  viability, T/C: 0.24%
[28]
  viability, T/C: 0.24%
[29]
  viability, T/C: 0.21%

## CC1OCC2(CCN(c3cnc(Sc4ccnc(N)c4Cl)c(N)n3)CC2)C1N (stereo not given) + CNCc1ccccc1-c1csc(C(C)Nc2nc(C)nc3cc(OC)c(OC)cc23)c1
Second compound 0.1 µM
  IC50: > 10000 nM
Second compound 0.316 µM
  IC50: > 10000 nM
Second compound 1 µM
  IC50: 150 nM
Second compound 3.16 µM
  IC50: < 31.6 nM
Second compound 10 µM
  IC50: < 31.6 nM
[1]
  viability, T/C: 95.7%
[2]
  viability, T/C: 86.1%
[3]
  viability, T/C: 75.8%
[4]
  viability, T/C: 78.5%
[5]
  viability, T/C: 76.3%
[6]
  viability, T/C: 61.4%
[7]
  viability, T/C: 94.2%
[8]
  viability, T/C: 83.7%
[9]
  viability, T/C: 73.7%
[10]
  viability, T/C: 76.2%
[11]
  viability, T/C: 67.2%
[12]
  viability, T/C: 50.5%
[13]
  viability, T/C: 55.3%
[14]
  viability, T/C: 53.7%
[15]
  viability, T/C: 43.7%
[16]
  viability, T/C: 39%
[17]
  viability, T/C: 27.7%
[18]
  viability, T/C: 11.5%
[19]
  viability, T/C: 0.54%
[20]
  viability, T/C: 0.29%
[21]
  viability, T/C: 0.49%
[22]
  viability, T/C: 0.25%
[23]
  viability, T/C: 0.31%
[24]
  viability, T/C: 0.37%
[25]
  viability, T/C: 0.19%
[26]
  viability, T/C: 0.41%
[27]
  viability, T/C: 0.27%
[28]
  viability, T/C: 0.2%
[29]
  viability, T/C: 0.53%
[30]
  viability, T/C: 0.17%

## CCN1CCN(Cc2ccc(Nc3ncc(F)c(-c4cc(F)c5nc(C)n(C(C)C)c5c4)n3)nc2)CC1 + CNCc1ccccc1-c1csc(C(C)Nc2nc(C)nc3cc(OC)c(OC)cc23)c1
Second compound 0.1 µM
  IC50: > 1000 nM
Second compound 0.316 µM
  IC50: > 1000 nM
Second compound 1 µM
  IC50: 32.8 nM
Second compound 3.16 µM
  IC50: < 3.16 nM
Second compound 10 µM
  IC50: < 3.16 nM
Second compound 0.1 µM, first compound 0.00316 µM
  viability, T/C: 102%
[31]
  viability, T/C: 91.5%
[1]
  viability, T/C: 92.4%
[2]
  viability, T/C: 89.1%
[3]
  viability, T/C: 102%
[4]
  viability, T/C: 86.9%
Second compound 0.316 µM, first compound 0.00316 µM
  viability, T/C: 92.6%
[32]
  viability, T/C: 88.8%
[7]
  viability, T/C: 78.7%
[8]
  viability, T/C: 79.1%
[9]
  viability, T/C: 81.7%
[10]
  viability, T/C: 58.9%
Second compound 1 µM, first compound 0.00316 µM
  viability, T/C: 76%
[33]
  viability, T/C: 65.7%
[13]
  viability, T/C: 40.5%
[14]
  viability, T/C: 51.9%
[15]
  viability, T/C: 9.53%
[16]
  viability, T/C: 10.2%
Second compound 3.16 µM, first compound 0.00316 µM
  viability, T/C: 0.86%
[34]
  viability, T/C: 0.97%
[19]
  viability, T/C: 0.25%
[20]
  viability, T/C: 0.28%
[21]
  viability, T/C: 0.37%
[22]
  viability, T/C: 0.51%
Second compound 10 µM, first compound 0.00316 µM
  viability, T/C: 0.33%
[35]
  viability, T/C: 0.19%
[25]
  viability, T/C: 0.51%
[26]
  viability, T/C: 0.3%
[27]
  viability, T/C: 0.17%
[28]
  viability, T/C: 0.4%

## CCNC(=O)CC1N=C(c2ccc(Cl)cc2)c2cc(OC)ccc2-n2c(C)nnc21 (stereo not given) + CNCc1ccccc1-c1csc(C(C)Nc2nc(C)nc3cc(OC)c(OC)cc23)c1
Second compound 0.1 µM
  IC50: > 10000 nM
Second compound 0.316 µM
  IC50: 6770 nM
Second compound 1 µM
  IC50: 1480 nM
Second compound 3.16 µM
  IC50: < 31.6 nM
Second compound 10 µM
  IC50: < 31.6 nM
[1]
  viability, T/C: 103%
[2]
  viability, T/C: 89%
[3]
  viability, T/C: 76.2%
[4]
  viability, T/C: 75.2%
[5]
  viability, T/C: 67.3%
[6]
  viability, T/C: 50.9%
[7]
  viability, T/C: 92.5%
[8]
  viability, T/C: 85.2%
[9]
  viability, T/C: 77%
[10]
  viability, T/C: 67.7%
[11]
  viability, T/C: 58.4%
[12]
  viability, T/C: 45.6%
[13]
  viability, T/C: 57.8%
[14]
  viability, T/C: 65.7%
[15]
  viability, T/C: 63.7%
[16]
  viability, T/C: 52.7%
[17]
  viability, T/C: 40.9%
[18]
  viability, T/C: 20.7%
[19]
  viability, T/C: 0.58%
[20]
  viability, T/C: 0.33%
[21]
  viability, T/C: 0.36%
[22]
  viability, T/C: 0.35%
[23]
  viability, T/C: 0.39%
[24]
  viability, T/C: 0.46%
[25]
  viability, T/C: 0.3%
[26]
  viability, T/C: 0.29%
[27]
  viability, T/C: 0.46%
[28]
  viability, T/C: 0.31%
[29]
  viability, T/C: 0.71%
[30]
  viability, T/C: 0.4%

## Cn1nccc1Nc1nccc(-c2cc3c(s2)C(C)(C)N(CCN2CCOCC2)C3=O)n1 + CNCc1ccccc1-c1csc(C(C)Nc2nc(C)nc3cc(OC)c(OC)cc23)c1
Second compound 0.1 µM
  IC50: 2790 nM
Second compound 0.316 µM
  IC50: 1180 nM
Second compound 1 µM
  IC50: 77.7 nM
Second compound 3.16 µM
  IC50: < 31.6 nM
Second compound 10 µM
  IC50: < 31.6 nM
[1]
  viability, T/C: 98%
[2]
  viability, T/C: 85.6%
[3]
  viability, T/C: 71.1%
[4]
  viability, T/C: 61.9%
[5]
  viability, T/C: 48.8%
[6]
  viability, T/C: 37.2%
[7]
  viability, T/C: 86.5%
[8]
  viability, T/C: 80.8%
[9]
  viability, T/C: 64.7%
[10]
  viability, T/C: 53%
[11]
  viability, T/C: 39.4%
[12]
  viability, T/C: 33.2%
[13]
  viability, T/C: 57.4%
[14]
  viability, T/C: 53%
[15]
  viability, T/C: 25.3%
[16]
  viability, T/C: 25.9%
[17]
  viability, T/C: 7.98%
[18]
  viability, T/C: 3.51%
[19]
  viability, T/C: 0.61%
[20]
  viability, T/C: 0.29%
[21]
  viability, T/C: 0.39%
[22]
  viability, T/C: 0.2%
[23]
  viability, T/C: 0.2%
[24]
  viability, T/C: 0.21%
[25]
  viability, T/C: 0.28%
[26]
  viability, T/C: 0.25%
[27]
  viability, T/C: 0.17%
[28]
  viability, T/C: 0.26%
[29]
  viability, T/C: 1.05%
[30]
  viability, T/C: 0.49%
